Data as given in patent US10118935B2, “Melampomagnolide B dimers” (priority 2014, dated 2018).

Tests used:
HL-60(TB) = conditions: read-out: LC50, molar
ACHN = assay: NCI 60 cell line five dose, Renal Cancer
COLO 205 = assay: NCI 60 cell line five dose, Colon Cancer
SK-OV-3 = assay: NCI 60 cell line five dose, Ovarian Cancer
MOLT-4 = assay: NCI 60 cell line five dose, Leukemia
SK-MEL-28 = assay: NCI 60 cell line five dose, Melanoma
T-47D = assay: NCI 60 cell line five dose, Breast Cancer
OVCAR-3 = assay: NCI 60 cell line five dose, Ovarian Cancer
NCI-H322M = assay: NCI 60 cell line five dose, Non-Small Cell Lung Cancer
NCI-H522 = assay: as above
CAKI-1 = assay: NCI 60 cell line five dose, Renal Cancer
TK-10 = assay: NCI 60 cell line five dose, Renal Cancer

C=C1C(=O)O[C@H]2[C@H]1CC/C(COC(=O)NCCCCCCCCNC(=O)OC/C1=C/CC[C@@]3(C)O[C@H]3[C@H]3OC(=O)C(=C)[C@@H]3CC1)=C\CC[C@@]1(C)O[C@@H]21 [JVM 3-62, bis(((1aR,7aS, 10aS, 10bS, E)-1a-Methyl-8-methylene-9-oxo-1a,2,3,6,7,7a,8,9,10a,10b-decahydrooxireno[2′,3′:9,10]cyclodeca[1,2-b]furan-5-yl)methyl)octane-1,8-diyldicarbamate]
CC50 (HL-60(TB)): > 100 µM
Percent Growth (ACHN; Log10 Concentration −4.0): −78%
Percent Growth (ACHN; Log10 Concentration −5.0): −84%
Percent Growth (ACHN; Log10 Concentration −6.0): −31%
Percent Growth (ACHN; Log10 Concentration −7.0): 100%
Percent Growth (ACHN; Log10 Concentration −8.0): 98%
GI50 (ACHN; molar): 0.268 µM
TGI (ACHN; molar): 6.62E−7
CC50 (ACHN; read-out: LC50, molar): 2.85 µM
Percent Growth (COLO 205; Log10 Concentration −4.0): −65%
Percent Growth (COLO 205; Log10 Concentration −5.0): −73%
Percent Growth (COLO 205; Log10 Concentration −6.0): −15%
Percent Growth (COLO 205; Log10 Concentration −7.0): 109%
Percent Growth (COLO 205; Log10 Concentration −8.0): 104%
GI50 (COLO 205; molar): 0.3 µM
TGI (COLO 205; molar): 7.56E−7
CC50 (COLO 205; read-out: LC50, molar): 3.99 µM
Percent Growth (SK-OV-3; Log10 Concentration −4.0): −100%
Percent Growth (SK-OV-3; Log10 Concentration −5.0): 10%
Percent Growth (SK-OV-3; Log10 Concentration −6.0): 101%
Percent Growth (SK-OV-3; Log10 Concentration −7.0): 108%
Percent Growth (SK-OV-3; Log10 Concentration −8.0): 108%
GI50 (SK-OV-3; molar): 3.64 µM
Percent Growth (MOLT-4; Log10 Concentration −4.0): −34%
Percent Growth (MOLT-4; Log10 Concentration −5.0): −27%
Percent Growth (MOLT-4; Log10 Concentration −6.0): 2%
Percent Growth (MOLT-4; Log10 Concentration −7.0): 101%
Percent Growth (MOLT-4; Log10 Concentration −8.0): 100%
GI50 (MOLT-4; molar): 0.33 µM
TGI (MOLT-4; molar): 1.18E−6
CC50 (MOLT-4; read-out: LC50, molar): > 100 µM
Percent Growth (SK-MEL-28; Log10 Concentration −4.0): −71%
Percent Growth (SK-MEL-28; Log10 Concentration −5.0): −77%
Percent Growth (SK-MEL-28; Log10 Concentration −6.0): −37%
Percent Growth (SK-MEL-28; Log10 Concentration −7.0): 90%
Percent Growth (SK-MEL-28; Log10 Concentration −8.0): 92%
GI50 (SK-MEL-28; molar): 0.205 µM
TGI (SK-MEL-28; molar): 5.11E−7
CC50 (SK-MEL-28; read-out: LC50, molar): 2.12 µM
Percent Growth (T-47D; Log10 Concentration −4.0): −49%
Percent Growth (T-47D; Log10 Concentration −5.0): −46%
Percent Growth (T-47D; Log10 Concentration −6.0): −4%
Percent Growth (T-47D; Log10 Concentration −7.0): 100%
Percent Growth (T-47D; Log10 Concentration −8.0): 92%
GI50 (T-47D; molar): 0.323 µM
TGI (T-47D; molar): 9.15E−7
CC50 (T-47D; read-out: LC50, molar): > 100 µM
Percent Growth (OVCAR-3; Log10 Concentration −4.0): −100%
Percent Growth (OVCAR-3; Log10 Concentration −5.0): −98%
Percent Growth (OVCAR-3; Log10 Concentration −6.0): 3%
Percent Growth (OVCAR-3; Log10 Concentration −7.0): 101%
Percent Growth (OVCAR-3; Log10 Concentration −8.0): 102%
GI50 (OVCAR-3; molar): 0.33 µM
TGI (OVCAR-3; molar): 1.08E−6
CC50 (OVCAR-3; read-out: LC50, molar): 3.32 µM
Percent Growth (NCI-H322M; Log10 Concentration −4.0): −91%
Percent Growth (NCI-H322M; Log10 Concentration −5.0): −51%
Percent Growth (NCI-H322M; Log10 Concentration −6.0): 100%
Percent Growth (NCI-H322M; Log10 Concentration −7.0): 104%
Percent Growth (NCI-H322M; Log10 Concentration −8.0): 107%
GI50 (NCI-H322M; molar): 2.14 µM
Percent Growth (NCI-H522; Log10 Concentration −4.0): −66%
Percent Growth (NCI-H522; Log10 Concentration −5.0): −75%
Percent Growth (NCI-H522; Log10 Concentration −6.0): −57%
Percent Growth (NCI-H522; Log10 Concentration −7.0): 89%
Percent Growth (NCI-H522; Log10 Concentration −8.0): 86%
GI50 (NCI-H522; molar): 0.186 µM
TGI (NCI-H522; molar): 4.07E−7
CC50 (NCI-H522; read-out: LC50, molar): 0.893 µM
Percent Growth (CAKI-1; Log10 Concentration −4.0): −99%
Percent Growth (CAKI-1; Log10 Concentration −5.0): −93%
Percent Growth (CAKI-1; Log10 Concentration −6.0): 41%
Percent Growth (CAKI-1; Log10 Concentration −7.0): 92%
Percent Growth (CAKI-1; Log10 Concentration −8.0): 94%
GI50 (CAKI-1; molar): 0.557 µM
CC50 (CAKI-1; read-out: LC50, molar): 4.79 µM
Percent Growth (TK-10; Log10 Concentration −4.0): −99%
Percent Growth (TK-10; Log10 Concentration −5.0): −98%
Percent Growth (TK-10; Log10 Concentration −6.0): −7%
Percent Growth (TK-10; Log10 Concentration −7.0): 97%
Percent Growth (TK-10; Log10 Concentration −8.0): 92%
GI50 (TK-10; molar): 0.284 µM
TGI (TK-10; molar): 8.56E−7
CC50 (TK-10; read-out: LC50, molar): 2.95 µM
